Source: patent US20020168658A1, “Amplification of nucleic acids” (YALE UNIVERSITY, priority 1995, published 2002)

Key:
OCT1 template = experiment: Amplification using two enzyme mixture Klentaq LA16 with additives; type: biochemical, human; settings: for amplification of OCT1: 2.2 M betaine or 10% DMSO, FIG. 1A lanes 1-2; for effect on amplification of OCT1: at 0.1-1.0 M
Experimental: (§1) Each of the G+C-rich templates is set up in an amplification reaction using a two enzyme mixture, with and without the addition of betaine (0.5 to 2.5 M), DMSO (5-10%), formnamide (5-10%), glycerol (5-10%), TMACl (0.1 mM to 1 M), and tetramethylammonium acetate (TMAA) (0.1 mM-1.0 M).
(§2) The amplification reaction (50 μl) is performed in 20 mM Tris-HCl, pH 9.0 at 25° C., containing 150 μg/ml of bovine serum albumin, 16 mM ammonium sulfate, 2.5 mM magnesium chloride, 200 μM of each dNTP, 50 ng each of the M13 forward primer and the M13 reverse primer, 0.5-1.0 ng of plasmid templates and 0.2-0.4 μl of Klentaq LA16 (a 1:15 v/v ratio of Klentaq1 (Ab Peptides Inc., St. Louis, Mo.), which is Taq DNA polymerase lacking the 5′ to 3′ exonuclease activity, and Pfu DNA polymerase (Stratagene, LaJolla, Calif.); the long and accurate (LA) system described in Barnes, Proc. Natl. Acad. Sci. USA 91:2216, 1994). DMSO, TMACl, TMAA, betaine, or the combination of DMSO and betaine is added to aliquots of the same mixture without dNTPs and overlaid with mineral oil. Amplification is performed in a thermocycler instrument using thin-walled tubes (0.5 ml). The tubes are heated at 95° C. for 15 seconds and amplification is initiated by the addition of dNTPs at 80° C. The following cycling conditions are used for 25 cycles: denaturation at 94° C. for 15 seconds, annealing at 50 to 55° C. for 1 minute, and extension at 68° C. for 5 minutes. Following amplification, 10 μl of the resulting product is loaded onto a 1% agarose gel (see Molecular Cloning: A Laboratory Manual by J. Sambrook et al., Cold Spring Harbor, 1989). The amplified DNA is stained with ethidium bromide and the gel is photographed while UV-irradiated by a transilluminator.

[1] = system: mixture of the 4 templates, OCT1, OCT-T1, TFR and MHCcln1; experiment: Amplification of a mixture of the four templates using Klentaq LA16, varying DMSO and/or betaine; type: biochemical; settings: for uniformity of amplification of the four templates: DMSO (5%, 10%) or betaine (1.1 M, 2.2 M) alone, FIG. 1B lanes 9-12
Experimental: as §2
Amplification is also performed on a mixture of the four templates, varying the concentrations of DMSO and/or betaine. […] Thus, by adding both DMSO and betaine, preferably within a range of 1.0 M betaine with 6-8% DMSO or 5% DMSO with 1.2-1.8 M betaine, all four templates are amplified.

[2] = system: OCT-T1 template (80% G+C); experiment: Amplification using AmpliTaq DNA polymerase under standard conditions with additives; type: biochemical, human; settings: DMSO 10% v/v, betaine up to 2.5 M, glycerol 10% v/v, formamide 10% v/v, TMACl 0.1 mM to 1.0 M
Description: (§3) A number of test DNAs are utilized in amplification reactions. Four of the test fragments are:
(iii) a 0.8 kb fragment of human OCT-T1 cDNA, which encodes a transcription factor expressed in T lymphocytes that binds the octamer sequence, and which has an 80% G+C content (see Bhargava et al., Proc. Natl. Acad. Sci. USA 91:10260, 1993; SEQ ID NO. 4); and
As each of these fragments are cloned in pBluescript or a pUC plasmid (MHCcln1), primers for amplification of these fragments are the M13 forward primer ([…]; SEQ. ID No. 1) and the M13 reverse primer ([…]; SEQ ID No. 2). Thus, the sizes of the amplified fragments for each of these four templates, with the exception of MHCcln1, include 200 bp of multiple cloning sites of pBluescript vector.
The two G+C-rich templates are unsuccessfully amplified (MHCcln1 and OCT-T1) using AmpliTaq® DNA polymerase (Perkin-Elmer Cetus) under standard conditions. (See Science 239:487, 1988). […] In addition, betaine (>1.0 M), formamide (>5%), and TMACl (>100 mM) are inhibitory for amplification of the non-G+C-rich template OCT1.

[3] = system: MHCcln1 template (64% G+C); experiment: as above; type: biochemical; settings: DMSO 10% v/v, betaine up to 2.5 M, glycerol 10% v/v, formamide 10% v/v, TMACl 0.1 mM to 1.0 M
Description: as §3
(ii) a 1.6 kb fragment from the MHC region, MHCclnl, which has a 64% G+C content (see Shukla et al., Nucleic Acids Res. 19:4233, 1991; GenBank Accession No. L20433; SEQ ID No. 3, which presents nucleotides 320 to 850 of L20433);
(§4) Thus, the sizes of the amplified fragments for each of these four templates, with the exception of MHCcln1, include 200 bp of multiple cloning sites of pBluescript vector.
(§5) (See Science 239:487, 1988).

[4] = system: OCT-T1 template (80% G+C); experiment: Amplification using two enzyme mixture Klentaq LA16 with additives; type: biochemical, human; settings: for amplification of OCT-T1: Klentaq LA16, 2.2 M betaine or 10% DMSO, FIG. 1A lanes 7-8; for OCT-T1 amplification: salt >0.15 M
Experimental: as §1, §2
(§6) Various analogues of betaine and two tetraalkylammonium salts are used to amplify OCT-T1 or TFR templates. Amplification reactions are performed as above in the presence of either 2 M analogue or at least 0.15 M salt.

TFR template (44% G+C) = experiment: as above; type: biochemical, human; settings: for amplification of TFR: Klentaq LA16, 2.2 M betaine or 10% DMSO, FIG. 1A lanes 3-4; for TFR amplification: salt >0.15 M
Experimental: as §1, §2, §6

MHCcln1 template = experiment: as above; type: biochemical; settings: 2.2 M betaine or 10% DMSO, FIG. 1A lanes 5-6
Experimental: as §1
as §2, with “The following cycling conditions are used for 25 cycles: denaturation at 94° C. for 15 seconds, annealing at 50 to 55° C. for 1 minute, and extension at 68° C. for 5 minutes. Following amplification, 10 μl of the resulting product is loaded onto a 1% agarose gel (see Molecular Cloning: A Laboratory Manual by J. Sambrook et al., Cold Spring Harbor, 1989). The amplified DNA is stained with ethidium bromide and the gel is photographed while UV-irradiated by a transilluminator.” left out

OCT1 template (52% G+C) = experiment: Amplification using AmpliTaq DNA polymerase under standard conditions with additives; type: biochemical, human
Description: as §3
(i) a 2.7 kb cDNA encoding the octamer binding protein, OCT1 GenBank accession No. X13403; Sturm et al., Genes & Dev. 2:1582, 1988; SEQ ID No. 8), which has a 52% G+C content;
as §4, §5

[5] = higher concentration of DMSO (12-15%) or betaine (1.8-2.5 M)

Structure (SMILES)	amplification of OCT1 (OCT1 template)	visible amplification of OCT-T1 [2]	visible amplification of MHCcln1 [3]	amplification of OCT-T1 [4]	amplification of TFR (TFR template (44% G+C))	amplification of MHCcln1 (MHCcln1 template)	effect on amplification of the non-G+C-rich template OCT1 (OCT1 template (52% G+C); betaine >1.0 M)	uniformity of amplification of the four templates [1]	amplification of all four templates [1, 5]	amplification of all four templates ([1]; 2.2 M betaine (lane 12))	effect on amplification of OCT1 (OCT1 template)	OCT-T1 amplification [4]	TFR amplification (TFR template (44% G+C))	effect on amplification of the non-G+C-rich template OCT1 (OCT1 template (52% G+C); TMACl >100 mM)	effect on amplification of the non-G+C-rich template OCT1 (OCT1 template (52% G+C); formamide >5%)
C[S+](C)[O-] [DMSO, dimethyl sulfoxide]	could be amplified	did not result in visible amplification	did not result in visible amplification	could be amplified	could be amplified	could be amplified	–	not amplified uniformly	variable amplification	–	–	–	–	–	–
CC(=O)[O-].C[N+](C)(C)C [TMAA, tetramethylammonium acetate]	–	–	–	–	–	–	–	–	–	–	inhibit amplification	unable to facilitate amplification	unable to facilitate amplification	–	–
C[N+](C)(C)C.[Cl-] [TMAC, tetramethylammonium chloride]	–	did not result in visible amplification	did not result in visible amplification	–	–	–	–	–	–	–	inhibit amplification	unable to facilitate amplification	unable to facilitate amplification	inhibitory	–
NC=O [formamide]	–	did not result in visible amplification	did not result in visible amplification	–	–	–	–	–	–	–	–	–	–	–	inhibitory

More lines, main results first:

amplification of OCT1 (OCT1 template)	visible amplification of OCT-T1 [2]	visible amplification of MHCcln1 [3]	amplification of OCT-T1 [4]	amplification of TFR (TFR template (44% G+C))	amplification of MHCcln1 (MHCcln1 template)	effect on amplification of the non-G+C-rich template OCT1 (OCT1 template (52% G+C); betaine >1.0 M)	Structure (SMILES)	uniformity of amplification of the four templates [1]	amplification of all four templates [1, 5]	amplification of all four templates ([1]; 2.2 M betaine (lane 12))	effect on amplification of OCT1 (OCT1 template)	OCT-T1 amplification [4]	TFR amplification (TFR template (44% G+C))	effect on amplification of the non-G+C-rich template OCT1 (OCT1 template (52% G+C); TMACl >100 mM)	effect on amplification of the non-G+C-rich template OCT1 (OCT1 template (52% G+C); formamide >5%)
could be amplified	did not result in visible amplification	did not result in visible amplification	could be amplified	could be amplified	could be amplified	inhibitory	C[N+](C)(C)CC(=O)O [Glycine betaine]	not amplified uniformly	variable amplification	amplified to a varying extent	–	–	–	–	–
–	did not result in visible amplification	did not result in visible amplification	–	–	–	–	OCC(O)CO [glycerol]	–	–	–	–	–	–	–	–
